Converted amounts (≈) assume the structure as drawn. Bridge positions count the residues as written; N and C are the ends. Square brackets hold non-standard residues; d marks the D form. Peptide text beside a SMILES is read from it. * marks the point of attachment. Ileψ(thiazoline)Cys = CC[C@H](C)[C@H](N)C1=N[C@H](C(=O)*)CS1; dOrn = NCCC[C@@H](N)C(=O)O
Assays:
Format in all cases: cell-based
[1] = test system: HT-29 (monolayer culture of a human colon carcinoma); experiment: Antitumor activity: growth inhibition of HT-29 cells, 3 days, Crystal Violet staining; settings: for IC50: Homo sapiens, 72 h, HT-29, three days, 37° C., approximate IC50; for antitumour activity against HT-29 human colon carcinoma: statement in words
From the text: (§1) An adapted form of the method described by Bergeron et al ("Antineoplastic an antiherpetic activity of spermidine catecholamide iron chelators" Biochem. Bioph. Res. Comm., 1984, 121(3), 848-854, and see also Schroeder et al, "Effects of Acyclic Pyrimidine Nucleoside Analogues" Med. Chem., 1981, 24 1078-1083) was used to determine the antitumor activity of the compounds of this invention. Three cultures of antitumour cell were employed. A-549 (monolayer culture of a human lung carcinoma, HT-29 (monolayer culture of a human colon carcinoma) and MEL-28 J (monolayer culture of a human melanoma).
(§2) A-549, HT-29 and MEL-28 were seeded into 16 mm wells at 2×20" cells per well in 1 ml aliquots of MEM 10FCS containing the identical concentration of drug. A separate set of cultures without drug was seeded a control growth to ensure that cells remained in exponential phase of growth. All determinations were carried out in duplicate. After three days of incubation at 37° C., 10% CO2 in 98% humid atmosphere, the wells were stained with 0.1% Crystal Violet. An approximate IC50 was determined by comparing growth in wells with drug to the growth in control wells.

[2] = test system: MEL-28 (monolayer culture of a human melanoma); experiment: Antitumor activity: growth inhibition of MEL-28 cells, 3 days, Crystal Violet staining; settings: for IC50: Homo sapiens, SK-MEL-28, 72 h, MEL-28, three days, 37° C., approximate IC50; for antitumour activity against MEL-28 human melanoma: statement in words
From the text: as §1, §2

[3] = test system: A-549 (monolayer culture of a human lung carcinoma); experiment: Antitumor activity: growth inhibition of A-549 cells, 3 days, Crystal Violet staining; settings: for IC50: Homo sapiens, A549, 72 h, A-549, three days, 37° C., approximate IC50; for antitumour activity against A-549 human lung carcinoma: statement in words
From the text: as §1, §2

[4] = test system: Bacillus sp. M-00-PHD-090 (CETC 4546); experiment: Antibiotic sensitivity of the producing strain (PASCO Data Management System MIC Gram Positive); settings: 28° C., 48 hours incubation
Experimental: 5. Antibiotic Sensitivity - PASCO™ Data Management System (Difco) MIC Gram Positive
All cultures were incubated at 28° C. and records of the results were made after 48 hours incubation time. The descriptions of the culture and test results are as follows: […]

Row | Compound | Antibiotic sensitivity [4] | other results
1 | CC(C)CC(NC(=O)C(O)C(O)C(N)CC(N)=O)C1Cc2cccc(O)c2C(=O)O1 (stereo not shown) [Amicoumacin A, amicoumacin A] | – | IC50 [1]: 1.5 µg/mL (≈ 3.54 µM); antitumour activity against HT-29 human colon carcinoma [1]: exhibit antitumour activity; IC50 [2]: 0.15 µg/mL (≈ 0.354 µM); antitumour activity against MEL-28 human melanoma [2]: exhibit antitumour activity; IC50 [3]: 0.75 µg/mL (≈ 1.77 µM); antitumour activity against A-549 human lung carcinoma [3]: exhibit antitumour activity
2 | CC(C)CC(N)C(O)C(O)C(=O)NC(CC(C)C)C1Cc2cccc(O)c2C(=O)O1 (stereo not shown) [PM-94128] | – | IC50 [1]: 0.02 µg/mL (≈ 0.0473 µM); antitumour activity against HT-29 human colon carcinoma [1]: exhibit antitumour activity; IC50 [2]: 0.02 µg/mL (≈ 0.0473 µM); antitumour activity against MEL-28 human melanoma [2]: exhibit antitumour activity; IC50 [3]: 0.02 µg/mL (≈ 0.0473 µM); antitumour activity against A-549 human lung carcinoma [3]: exhibit antitumour activity
3 | NCC[C@H](O)C(=O)N[C@@H]1C[C@H](N)[C@@H](O[C@H]2O[C@H](CN)[C@@H](O)[C@H](O)[C@H]2O)[C@H](O)[C@H]1O[C@H]1O[C@H](CO)[C@@H](O)[C@H](N)[C@H]1O [amikacin] | Sensitive | –
4 | CC1(C)S[C@@H]2[C@H](NC(=O)[C@H](N)c3ccccc3)C(=O)N2[C@H]1C(=O)O [ampicillin] | Sensitive | –
5 | CC[C@H](C)[C@H](N)C1=N[C@H](C(=O)N[C@@H](CC(C)C)C(=O)N[C@H](CCC(=O)O)C(=O)N[C@H](C(=O)N[C@H]2CCCCNC(=O)[C@H](CC(N)=O)NC(=O)[C@@H](CC(=O)O)NC(=O)[C@H](Cc3cnc[nH]3)NC(=O)[C@@H](Cc3ccccc3)NC(=O)[C@H]([C@@H](C)CC)NC(=O)[C@@H](CCCN)NC2=O)[C@@H](C)CC)CS1 [bacitracin] ({Ileψ(thiazoline)Cys}-L[dE]IK[dOrn]I[dF]H[dD]N; lactam 4-C) | resistant | –
6 | N[C@@H](C(=O)N[C@@H]1C(=O)N2C(C(=O)O)=C(Cl)CS[C@H]12)c1ccccc1 [ceflactor] | Sensitive | –
7 | CO[C@@]1(NC(=O)Cc2cccs2)C(=O)N2C(C(=O)O)=C(COC(N)=O)CS[C@@H]21 [cefoxitin] | Sensitive | –
8 | CO/N=C(\C(=O)N[C@@H]1C(=O)N2C(C(=O)O)=C(COC(N)=O)CS[C@H]12)c1ccco1 [cefuroxime] | Sensitive | –
9 | CC[C@H]1OC(=O)[C@H](C)[C@@H](O[C@H]2C[C@@](C)(OC)[C@@H](O)[C@H](C)O2)[C@H](C)[C@@H](O[C@@H]2O[C@H](C)C[C@H](N(C)C)[C@H]2O)[C@](C)(O)C[C@@H](C)C(=O)[C@H](C)[C@@H](O)[C@]1(C)O [erythromycin] | Sensitive | –
10 | C[C@@H]1O[C@@H]1P(=O)(O)O [fosfomicin] | Sensitive | –
11 | CCn1cc(C(=O)O)c(=O)c2ccc(C)nc21 [nalidixic acid] | Sensitive | –
12 | CCn1cc(C(=O)O)c(=O)c2cc(F)c(N3CCNCC3)cc21 [norfloxacin] | Sensitive | –
13 | CO[C@@H]1[C@@H](OC(N)=O)[C@@H](O)[C@H](Oc2ccc3c(O)c(NC(=O)c4ccc(O)c(CC=C(C)C)c4)c(=O)oc3c2C)OC1(C)C [novobiocin] | Sensitive | –
14 | Cc1onc(-c2ccccc2)c1C(=O)N[C@@H]1C(=O)N2[C@@H]1SC(C)(C)[C@@H]2C(=O)O [oxacillin] | Sensitive | –
15 | CC1(C)S[C@@H]2[C@H](NC(=O)Cc3ccccc3)C(=O)N2[C@H]1C(=O)O [penicillin] | Sensitive | –
16 | CO[C@H]1/C=C/O[C@@]2(C)Oc3c(C)c(O)c4c(O)c(c(/C=N/N5CCN(C)CC5)c(O)c4c3C2=O)NC(=O)/C(C)=C\C=C\[C@H](C)[C@H](O)[C@@H](C)[C@@H](O)[C@@H](C)[C@H](OC(C)=O)[C@@H]1C [rifampicin] | Sensitive | –
17 | [H]/N=C(/N)N[C@H]1[C@H](O)[C@@H](O)[C@H](O[C@@H]2O[C@@H](C)[C@](O)(C=O)[C@H]2O[C@@H]2O[C@@H](CO)[C@H](O)[C@@H](O)[C@@H]2NC)[C@@H](N/C(N)=N\[H])[C@@H]1O [streptomycin] | Sensitive | –
18 | CN(C)C1C(=O)C(C(N)=O)=C(O)C2(O)C(=O)C3=C(O)c4c(O)cccc4C(C)(O)C3CC12 (stereo not shown) [tretracycline] | Sensitive | –
19 | CN[C@H](CC(C)C)C(=O)N[C@H]1C(=O)N[C@@H](CC(N)=O)C(=O)N[C@H]2C(=O)N[C@H]3C(=O)N[C@H](C(=O)N[C@H](C(=O)O)c4cc(O)cc(O)c4-c4cc3ccc4O)[C@H](O)c3ccc(c(Cl)c3)Oc3cc2cc(c3O[C@@H]2O[C@H](CO)[C@@H](O)[C@H](O)[C@H]2O[C@H]2C[C@](C)(N)[C@H](O)[C@H](C)O2)Oc2ccc(cc2Cl)[C@H]1O [vancomycin] | resistant | –
20 | gentamicin | Sensitive | –
21 | teicoplanin | resistant | –

— patent US5925671A, “Antitumor isocoumarins” (Pharma Mar, s.a., priority 1995, dated 1999)
